Measured values published in patent US11045448B2, “Piperidines as covalent menin inhibitors” (THE REGENTS OF THE UNIVERSITY OF MICHIGAN, priority 2017, dated 2021).
pIC50: −log10 of the molar value. Where two headings read alike, the source gives them in different places.

Tests used:
menin protein [1] = molecular target: T1, menin protein (Homo sapiens (Human), UniProt O00255); assay: Fluorescence polarization (FP) competitive binding assay, menin binding affinity; details: menin protein 4 nM, probe 2 nM, room temperature 30 minutes
Method: A fluorescence polarization (FP) competitive binding assay was used to determine the binding affinities of representative menin inhibitors. A FAM labeled fluorescent probe was designed and synthesized based on a MLL1 peptide (FAM-MM2). Equilibrium dissociation constant (Kd) value of FAM-MM2 to menin protein was determined from protein saturation experiments by monitoring the total fluorescence polarization of mixtures composed with the fluorescent probe at a fixed concentration and the protein with increasing concentrations up to full saturation. Serial dilutions of the protein were mixed with FAM-MM2 to a final volume of 200 μl in the assay buffer (PBS with 0.02% Bovine γ-Globulin and 4% DMSO. 0.01% Triton X-100 was added right before assays). Final FAM-MM2 concentration was 2 nM. Plates were incubated at room temperature for 30 minutes with gentle shaking to assure equilibrium. FP values in millipolarization units (mP) were measured using the Infinite M-1000 plate reader (Tecan U.S., Research Triangle Park, N.C.) in Microfluor 1 96-well, black, v-bottom plates (Thermo Scientific, Waltham, Mass.) at an excitation wavelength of 485 nm and an emission wavelength of 530 nm.
The IC50, see Table 3, of representative Compounds of the Disclosure were determined in a competitive binding experiment. Mixtures of 5 μl of the tested compounds in DMSO and 195 μl of preincubated protein/probe complex solution in the assay buffer were added into assay plates which were incubated at room temperature for 30 minutes with gentle shaking. Final concentration of the menin protein was 4 nM, and final probe concentration is 2 nM. Negative controls containing protein/probe complex only (equivalent to 0% inhibition), and positive controls containing only free probes (equivalent to 100% inhibition), were included in each assay plate. FP values were measured as described above. IC50 values were determined by nonlinear regression fitting of the competition curves.

menin protein [2] = molecular target: T1, menin protein; assay: Covalent binding to menin protein by mass spectroscopy; details: incubated with recombinant human menin, compared to menin apo
Method: No. 1 and Cpd. […] Recombinant human menin protein was incubated with Cpd. No. 1 or Cpd. No. 3 and compared to menin protein alone (Menin apo).

RS4-11 = assay: 7-day proliferation assay (WST-8), RS4-11; format: cell-based; details: Homo sapiens, 7 days, read-out: IC50 in cell growth inhibition
Method: (§1) The effect of representative Compounds of the Disclosure on cell viability was determined in a 7-day proliferation assay. Cells were maintained in the appropriate culture medium with 10% FBS at 37° C. and an atmosphere of 5% CO2.
(§2) Cells were seeded in 96-well flat bottom (Corning COSTAR, Corning, N.Y., cat #3595) at a density of 2,000-3,000 cells/well in 100 μl of culture medium. Compounds were serially diluted in the appropriate medium, and 100 μl of the diluted compounds were added to the appropriate wells of the cell plate. After the addition of compounds, the cells were incubated at 37° C. in an atmosphere of 5% CO2 for 7 days. Cell viability was determined using the WST (2-(2-methoxy-4-nitrophenyl)-3-(4-nitrophenyl)-5-(2,4-disulfophenyl)-2H-tetrazolium, monosodium salt) Cell Counting-8 Kit (Dojindo Molecular Technologies, Inc., Rockville, Md.) according to the manufacturers' instructions.
(§3) WST-8 reagent was added to each well at a final concentration of 10% (v/v), and then the plates were incubated at 37° C. for 1-2 hours for color development. The absorbance was measured at 450 nm using a SPECTRAmax PLUS plate reader (Molecular Devices, Sunnyvale, Calif.). The readings were normalized to the DMSO-treated cells and the half maximal inhibitory concentration (IC50) was calculated by nonlinear regression (four parameters sigmoid fitted with variable slope, least squares fit, and no constraint) analysis using the GraphPad Prism 5 software (GraphPad Software, La Jolla, Calif.).

MV4-11 = assay: 7-day proliferation assay (WST-8), MV4-11; format: cell-based; details: Homo sapiens, 168 h, 7 days, read-out: IC50 in cell growth inhibition
Method: as §1, §2, §3

MOLM13 = assay: 7-day proliferation assay (WST-8), MOLM13; format: cell-based; details: Homo sapiens, MOLM-13, 168 h, 7 days, read-out: IC50 in cell growth inhibition
Method: as §1, §2, §3

SEM cells = assay: 7-day proliferation assay (WST-8), SEM; format: cell-based; details: 7 days, read-out: IC50 in cell growth inhibition
Method: as §1, §2, §3

MOLM14 = assay: 7-day proliferation assay (WST-8), MOLM14; format: cell-based; details: Homo sapiens, MOLM-14, 168 h; Table 4; MOLM14, AML, MLL/AF9; 7 days; read-out: IC50 in cell growth inhibition
Method: as §1, §2, §3

MonoMac6 = assay: 7-day proliferation assay (WST-8), MonoMac6; format: cell-based; details: Homo sapiens, MONO-MAC-6, 168 h, 7 days, read-out: IC50 in cell growth inhibition
Method: as §1, §2, §3

MOLM-16 (no MLL fusion) = assay: 7-day proliferation assay (WST-8), MOLM-16; format: cell-based; details: MOLM16, 168 h, Table 6, 7 days, read-out: IC50 in cell growth inhibition
Method: as §1, §2
(§4) WST-8 reagent was added to each well at a final concentration of 10% (v/v), and then the plates were incubated at 37° C. for 1-2 hours for color development. The absorbance was measured at 450 nm using a SPECTRAmax PLUS plate reader (Molecular Devices, Sunnyvale, Calif.). […]

K562 (no MLL fusion) = assay: 7-day proliferation assay (WST-8), K562; format: cell-based; details: Homo sapiens, 168 h, Table 6, 7 days, read-out: IC50 in cell growth inhibition
Method: as §1, §2, §4

HL-60 (no MLL fusion) = assay: 7-day proliferation assay (WST-8), HL-60; format: cell-based; details: Homo sapiens, 168 h, Table 6, 7 days, read-out: IC50 in cell growth inhibition
Method: as §1, §2, §4

SKM-1 (no MLL fusion) = assay: 7-day proliferation assay (WST-8), SKM-1; format: cell-based; details: Homo sapiens, 168 h, Table 6, 7 days, read-out: IC50 in cell growth inhibition
Method: as §1, §2, §4

[3] = test system: MEIS1 and HOXA gene expression in MV4;11 cell lines; assay: MEIS1 and HOXA gene expression by RT-PCR in MV4;11; format: cell-based; details: for MEIS1 and HOXA gene expression (mRNA levels of MEIS1, HOXA9 and HOXA11): different concentrations
Method: FIG. 4 is a bar graph showing that Cpd. No. 57 suppresses MEIS1 and HOXA gene expression in MV4;11 cell lines. Cells were treated with different concentrations of Cpd. No. 57 for 24 h. mRNA levels of MEIS1, HOXA9 and HOXA11 were determined by RT-PCR. *(p<0.05), **(p<0.01).
FIG. 5 is a bar graph showing that Cpd. No. 57 suppresses MEIS1 and HOXA gene expression in MV4;11 cell lines. Cells were treated with different concentrations of Cpd. No. 57 for 6 h. mRNA levels of MEIS1, HOXA9 and HOXA11 were determined by RT-PCR. *(p<0.05), **(p<0.01).
(§5) No. 57 suppresses MEIS1 and HOXA gene expression in MV4;11 and MOLM13 cell lines.

MOLM-4 (MLL-AF9) = assay: 7-day proliferation assay (WST-8), MOLM-4; format: cell-based; details: 168 h, Table 6, 7 days, read-out: IC50 in cell growth inhibition
Method: as §1, §2, §4

[4] = test system: MEIS1 and HOXA gene expression in MOLM13 cell lines; assay: MEIS1 and HOXA gene expression by RT-PCR in MOLM13; format: cell-based
Method: FIG. 6 is a bar graph showing that Cpd. No. 57 suppresses MEIS1 and HOXA gene expression in MOLM13 cell lines. Cells were treated with different concentrations of Cpd. No. 57 for 24 h. mRNA levels of MEIS1, HOXA9 and HOXA11 were determined by RT-PCR. *(p<0.05), **(p<0.01).
as §5

[5] = 168 h, Table 4, RS4-11, B-lineage ALL, MLL/AF4
[6] = Table 4, MonoMac6, AML, MLL/AF9

T1 sequence (O00255 whole entry): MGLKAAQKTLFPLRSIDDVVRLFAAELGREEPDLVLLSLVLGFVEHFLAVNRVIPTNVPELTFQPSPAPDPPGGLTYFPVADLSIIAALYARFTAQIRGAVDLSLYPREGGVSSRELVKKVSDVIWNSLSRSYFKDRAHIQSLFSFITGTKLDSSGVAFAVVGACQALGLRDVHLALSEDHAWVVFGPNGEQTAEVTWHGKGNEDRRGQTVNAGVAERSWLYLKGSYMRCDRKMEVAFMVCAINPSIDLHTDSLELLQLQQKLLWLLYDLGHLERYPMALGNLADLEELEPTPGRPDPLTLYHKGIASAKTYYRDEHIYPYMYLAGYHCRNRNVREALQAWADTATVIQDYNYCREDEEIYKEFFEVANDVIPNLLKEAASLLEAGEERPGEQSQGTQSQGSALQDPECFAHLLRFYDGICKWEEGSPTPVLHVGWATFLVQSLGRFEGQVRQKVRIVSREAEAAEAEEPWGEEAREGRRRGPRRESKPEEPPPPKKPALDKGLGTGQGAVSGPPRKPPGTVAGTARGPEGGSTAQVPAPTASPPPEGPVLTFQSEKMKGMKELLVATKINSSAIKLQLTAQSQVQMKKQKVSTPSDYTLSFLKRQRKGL

| pIC50 (menin protein [1]) | pIC50 (RS4-11; [5]) | pIC50 (MV4-11; Table 4, MV4-11, AML, MLL/AF4) | pIC50 (MOLM13; Table 4, MOLM13, AML, MLL/AF9) | pIC50 (MOLM14) | SMILES | pIC50 (SEM cells; MLL-AF9, 168 h, Table 4) | pIC50 (MonoMac6; [6]) | also measured |
| --- | --- | --- | --- | --- | --- | --- | --- | --- |
| 8.52 |  |  |  |  | C=CC(=O)Nc1cccc(S(=O)(=O)c2ccc(N3CC(CN4CCC([C@@](C#N)(c5cccc(F)c5)[C@H]5CCC[C@@H]5OC(=O)NC)CC4)C3)cc2)c1 [Cpd. No. 3, (1S,2R)-2-((S)-(1-((1-(4-((3-acrylamidophenyl)sulfonyl)phenyl)azetidin-3-yl)methyl)piperidin-4-yl)(cyano)(3-fluorophenyl)methyl)cyclopentyl methylcarbamate] |  |  | Covalent binding with menin protein (mass spectroscopy) (menin protein [2]): covalently bind with menin protein |
| 8.52 | 8.23 | 8.66 | 7.77 | 7.75 | C=CC(=O)Nc1cccc(S(=O)(=O)c2ccc(N3CC(CN4CCC([C@@](Cn5ccnc5CC)(c5cccc(F)c5)[C@H]5CCC[C@@H]5NC(=O)OC)CC4)C3)cc2)c1 [Cpd. No. 7, methyl ((1S,2R)-2-((S)-1-(1-((1-(4-((3-acrylamidophenyl)sulfonyl)phenyl)azetidin-3-yl)methyl)piperidin-4-yl)-2-(2-ethyl-1H-imidazol-1-yl)-1-(3-fluorophenyl)ethyl)cyclopentyl)carbamate] | 8.33 | 7.17 |  |
| 8.30 | 8.06 | 8.37 | 7.57 | 7.39 | C=CC(=O)N1CC(S(=O)(=O)c2ccc(N3CC(CN4CCC([C@@](C#N)(c5cccc(F)c5)[C@H]5CCC[C@@H]5OC(=O)NC)CC4)C3)cc2)C1 [Cpd. No. 1, (1S,2R)-2-((S)-(1-((1-(4-((1-acryloylazetidin-3-yl)sulfonyl)phenyl)azetidin-3-yl)methyl)piperidin-4-yl)(cyano)(3-fluorophenyl)methyl)cyclopentyl methylcarbamate] | 7.96 | 7.08 | Covalent binding with menin protein (mass spectroscopy) (menin protein [2]): covalently bind with menin protein |
| 8.70 | 7.97 | 8.08 | 7.38 | 7.10 | C=CC(=O)Nc1cccc(S(=O)(=O)c2ccc(N3CC(CN4CCC([C@@](C#N)(c5cccc(F)c5)[C@H]5CCC[C@@H]5NC(=O)OC)CC4)C3)cc2)c1 [Cpd. No. 5, methyl ((1S,2R)-2-((S)-(1-((1-(4-((3-acrylamidophenyl)sulfonyl)phenyl)azetidin-3-yl)methyl)piperidin-4-yl)(cyano)(3-fluorophenyl)methyl)cyclopentyl)carbamate] | 7.40 | 6.81 |  |
| 8.52 |  |  |  |  | COC(=O)N[C@H]1CCC[C@@H]1[C@](C#N)(c1cccc(F)c1)C1CCN(CC2CN(c3ccc(S(=O)(=O)C4CN(C(=O)/C=C/CN(C)C)C4)cc3)C2)CC1 [Cpd. No. 57, methyl ((1S,2R)-2-((S)-cyano(1-((1-(4-((1-((E)-4-(dimethylamino)but-2-enoyl)azetidin-3-yl)sulfonyl)phenyl)azetidin-3-yl)methyl)piperidin-4-yl)(3-fluorophenyl)methyl)cyclopentyl)carbamate] |  |  | pIC50 (RS4-11; RS4-11, 168 h, Table 6): 8.03; pIC50 (MOLM-16 (no MLL fusion)): 5.19; pIC50 (MV4-11; Table 5, MV4-11): 8.64; pIC50 (K562 (no MLL fusion)): 5.35; pIC50 (HL-60 (no MLL fusion)): 5.80; pIC50 (SKM-1 (no MLL fusion)): 6.05; MEIS1 and HOXA gene expression (mRNA levels of MEIS1, HOXA9 and HOXA11) ([3]; MV4;11, 6 h, RT-PCR (FIG. 5)): suppresses; MEIS1 and HOXA gene expression (mRNA levels of MEIS1, HOXA9 and HOXA11) ([3]; MV4;11, 24 h, RT-PCR (FIG. 4)): suppresses; MEIS1 and HOXA gene expression ([3]; MV4;11, summary sentence for FIG. 4, FIG. 5): suppresses; pIC50 (MOLM-4 (MLL-AF9)): 7.50; MEIS1 and HOXA gene expression (mRNA levels of MEIS1, HOXA9 and HOXA11) ([4]; MOLM13, 24 h, different concentrations, RT-PCR (FIG. 6)): suppresses; MEIS1 and HOXA gene expression ([4]; MOLM13, summary sentence for FIG. 6): suppresses; pIC50 (MOLM13; Table 5, MOLM13): 7.81; pIC50 (SEM cells; 168 h, Table 6, SEM (MLL-AF4)): 7.74; pIC50 (MonoMac6; Table 6, MonoMac6 (MLL-AF9)): 7.99 |
| 8.52 | 7.21 | 7.35 | 6.81 | 6.74 | C=CC(=O)N1CC(S(=O)(=O)c2ccc(N3CC(CN4CCC([C@@](C#N)(c5cccc(F)c5)[C@H]5CCC[C@@H]5NC(=O)OC)CC4)C3)cc2)C1 [Cpd. No. 6, methyl ((1S,2R)-2-((S)-(1-((1-(4-((1-acryloylazetidin-3-yl)sulfonyl)phenyl)azetidin-3-yl)methyl)piperidin-4-yl)(cyano)(3-fluorophenyl)methyl)cyclopentyl)carbamate] | 7.10 | 6.12 |  |
| 8.52 |  |  |  |  | COC(=O)N[C@H]1CCC[C@@H]1[C@](C#N)(c1cccc(F)c1)C1CCN(CC2CN(c3ccc(S(=O)(=O)C4CN(C(=O)/C=C/CN5CCCC5)C4)cc3)C2)CC1 [Cpd. No. 74, methyl ((1S,2R)-2-((S)-cyano(3-fluorophenyl)(1-((1-(4-((1-((E)-4-(pyrrolidin-1-yl)but-2-enoyl)azetidin-3-yl)sulfonyl)phenyl)azetidin-3-yl)methyl)piperidin-4-yl)methyl)cyclopentyl)carbamate] |  |  | pIC50 (MV4-11; Table 5, MV4-11): 8.70; pIC50 (MOLM13; Table 5, MOLM13): 7.85 |
